How the values were obtained:
Assay type in all cases: functional
[1] = test system: Nilaparvata lugens; experiment: Insecticidal activity against Nilaparvata lugens (brown planthopper) assessed as mortality at 50 ppm; conditions: Nilaparvata lugens
[2] = test system: Culex pipiens molestus; experiment: Insecticidal activity against Culex pipiens molestus assessed as mortality at 5 ppm; conditions: Culex pipiens
[3] = test system: Chilo suppressalis; experiment: Insecticidal activity against Chilo suppressalis (rice stem borer) assessed as mortality compound administered as topical application
[4] = test system: Tetranychus urticae; experiment: Acaricidal activity against Tetranychus urticae (two-spotted spider mite) assessed as mortality at 500 ppm; conditions: Tetranychus urticae
[5] = test system: Spodoptera litura; experiment: Insecticidal activity against Spodoptera litura assessed as mortality at 500 ppm; conditions: Spodoptera litura
[6] = test system: Chilo suppressalis; experiment: Insecticidal activity against Chilo suppressalis (rice stem borer) assessed as mortality at 50 ug/g administered as topical application

| Compound | mortality at 50 ppm [1] | mortality at 5 ppm [2] | LD50 [3] | mortality at 500 ppm [4] | mortality at 500 ppm [5] | mortality [6] |
| --- | --- | --- | --- | --- | --- | --- |
| CN(C)C[C@@H]1CCSC(C#N)(c2ccc(Cl)cc2)S1.O=C(O)C(=O)O (mixture of isomers) | 90% | 90% | 20.7 mg/kg | 100% | 0% | 100% |
| CN(C)C(CSC(N)=O)CSC(N)=O.Cl [CARTAP HYDROCHLORIDE] | 100% | 100% | 2.3 mg/kg | 37% | 35% | 100% |
| CN(C)C1CSSC1.O=C(O)C(=O)O [NEREISTOXIN HYDROGEN OXALATE] | 100% | 100% | 1.7 mg/kg | 50% | 30% | 100% |
| CN(C)C1CS[S+]([O-])C1.O=C(O)C(=O)O (centres undefined) [NEREISTOXIN MONOXIDE HYDROGEN OXALATE] | 100% | 50% | 5.8 mg/kg | 60% | 30% | 100% |

— ChEMBL document CHEMBL3045009, “Synthesis and Biological Activity of the Functional Derivatives of 3- and 4-(Dimethyl-aminomethyl)-1,2-dithiolanes” (1992)
